Assay results reported in patent publication US20050239205A1, “Gb virus b based replicons and replicon enhanced cells” (priority 2002, published 2005).

Key:
GBV-B virus = assay: Infection of enhanced cells with GBV-B virus-containing serum by electroporation (Taqman); assay type: cell-based
Procedure: GBV-B virus inoculum produced upon passage of virus in tamarins was used to infect Huh7 and cB76.1/Huh7 enhanced cells. GBV-B containing tamarin serum was layered onto 10^5 cells in multiwell-6-wells 1 day after plating at multiplicity of infection of 0.75 G.E./cell. After 6 hours adsorption, the virus-containing serum was removed, the cells extensively washed and incubated in the serum-free DMEM. Cells from individual wells were lyzed with Trizol at different times and GBV-B RNA quantified by Taqman.
As an alternative method, 10^6 cells were mixed with undiluted virus-containing serum (10^6 G.E.) and subjected to electroporation. The cells were plated at a density of 10^5/well and treated as described for experiments of RNA electroporation. Duplicate wells were run in parallel, with and without interferon. Cells from individual wells were lyzed with Trizol at different times and GBV-B RNA quantified by Taqman. The amount of G.E. detectable immediately after electroporation and wash was 10^3 G.E., it was undetectable at 24 and 48 hours, at day 3 it was 10^4 G.E.; at day 6 it was 5×10^3 (possibly inhibition due to cell density); in corresponding wells treated with interferon the RNA was undetectable. […] RNA was quantified at day 13 and 16 giving a figure corresponding to 4×10^3 G.E. and 1.2×10^4 G.E. respectively. […]

GBV-B replicon = assay: Effect of test compound on GBV-B replicon RNA in B76.1/Huh7 cells (TaqMan, neo primer set); assay type: cell-based
Procedure: (§1) Huh7 cell clones carrying GBV-B or HCV replicons were used to test the effect of human interferon alpha-2b. Cells (1×10^5) were plated into each well of a series of wells of Multiwell-6-wells plates (falcon cat N. 35-3046) in medium without G418. After 16 hours the medium was discarded and increasing concentrations of the test compound in fresh medium were added to each series of wells. Controls were run using the specific compound solvent at the appropriate dilution.
[…] Total RNA was purified as described in the TRizol protocol (Life Technologies). Ten out of 100 μl of total RNA were used in each reaction.
(§2) Taq Man analysis was performed using a neomycin primer set (taq NEO 1, GATGGATTGCACGCAGGTT (SEQ. ID. NO. 17), and taq NEO 5, […] (SEQ. ID. NO. 18)) and a NEO probe (1,6-carboxyfluorescein-TCCGGCCGCTTGGGT GGAG (SEQ. ID. NO. 19)-N,N,N′,N′-tetramethyl-6-carboxyrhodamine). Human GAPDH mRNA quantified with a specific primer set (PE Applied Biosystems) was used as an endogenous reference. GBV-B RNA extracted from mock-treated cells was used as a calibrator. Results from two independent experiments were analyzed using both the Comparative Ct Method and the standard curve method.
Experiments were performed using 10^5 cells of B76.1/Huh7 and 10A plated into individual wells of 6-multiwell plate and incubated overnight in the absence of G418. […]

HCV replicon = assay: Effect of test compound on HCV replicon RNA in 10A Huh7 cells (TaqMan, neo primer set); assay type: cell-based; settings: 10A cells (HCV replicon in Huh7), up to 3 days, replicon RNA normalized to GAPDH
Procedure: as §1
Cells were grown up to 3 days in the presence of compounds or compound solvent without a compound, avoiding cell confluence, and finally lysed with TRIzol. Total RNA was purified as described in the TRizol protocol (Life Technologies). Ten out of 100 μl of total RNA were used in each reaction.
as §2, with “method. […]” for “method.”

[1] = system: GBV-B full-length genomic FL3 RNA; assay: Replication of full-length GBV-B FL3 RNA transfected in cB76.1/Huh7 enhanced cells (Taqman); assay type: cell-based
Description: GBV-B RNA was quantified by a real-time 5′ exonuclease PCR (TaqMan) assay using a primer/probe set that recognized a portion of the GBV-B 5′UTR. The primers (GBV-B-F3, GTAGGCGGCGGGACTCAT (SEQ. ID. NO. 14), and GBV-B-R3, TCAGGGCCATCCAAGTCAA (SEQ. ID NO. 15)) and probe (GBV-B-P3,6-carboxyfluorescein-[…] (SEQ. ID. NO. 16)-N,N,N′,N′-tetramethyl-6-carboxyrhodamine) were selected using the Primer Express software (PE Applied Biosystems). The fluorescent probe was obtained from PE Applied Biosystems. The primers were used at 10 pmol/50 μl reaction, and the probe was used at 5 pmol/50 μl reaction.
PCR was were performed using a TaqMan Gold RT-PCR kit (PE Applied Biosystems). […]
RNA transcribed from a plasmid containing the first 2000 nucleotides of the GBV-B genome was used as a standard to establish genome equivalents. […] RNA was quantified by absorbance at 260 nm and stored at −80° C.
All reactions were run in duplicate by using the ABI Prism 7700 Sequence Detection System (PE Applied Biosystems). […] Results from two independent experiments were analyzed using both the Comparative Ct Method and the standard curve method.
GBV-B full-length genomic FL3 RNA (EMBL accession number AJ277947) was transfected in Huh7 and in enhanced cells cB76.1/Huh7 in parallel with the corresponding GAA control. Intracellular GBV-B RNA was measured by Taqman in a time-course experiment.

RepB replication = assay: beta-lactamase stain of bla-RepB transfected cB76.1/Huh7 cells; assay type: cell-based, GBV-B
Procedure: Immediately after electric pulses cells were diluted in 8 ml complete Dulbecco's Modified Eagle Medium (DMEM) and processed with different protocols depending on the selection/tracer used. In the case of neo-constructs transformation, cells were divided in 3 plates of 15 cm diameter and on the following day the selecting antibiotic G418 (Sigma G-9516) was added at a concentration of 0.250, 0.5 or 1 mg/ml. […] Surviving clones were picked-up and expanded by growing them in individual plates. When a bla reporter gene was used, 1.5 ml, 1.0 ml and 0.5 ml of transfected cells suspension were plated in each well of Multiwell-6-wells plate (Falcon cat. N. 35-3046) to be stained respectively at 24, 48 and 72 hours.
Aurora substrate system “CCF4” was used to measure β-lactamase activity. When quantitative PCR was used to measure transient replication, cells were plated 1-2×10^5/well in “6-multi-well plate”. After 3 days total RNA was purified as described in the TRIzol protocol (Life Technologies) and 10 out of 100 μl of total RNA were used in individual TaqMan reactions.
The increased efficiency of replication of RepB RNA in cB76.1/Huh7 cells compared to wild type Huh7 cells was also monitored using a colorimetric assay after transfection of RNA transcribed from bla-RepB plasmid. The bla-RepB plasmid expresses a […] marker in place of the selector neomycin phosphotransferase. […]

With “human interferon alpha-2b [Human alpha-IFN]” the “GBV-B RNA in cells cultivated in the presence of IFN” value (GBV-B virus; after splits, points up to day 16) was “background signals”, the “GBV-B RNA in treated wells” value (GBV-B virus; day 3 and day 6 after electroporation with virus-containing serum) was “undetectable” and the “Replicon RNA after curing treatment” value (GBV-B replicon; B76.1/Huh7, 100 U/ml for 15 days in the absence of neomycin, TaqMan at end of treatment) was “disappearance of the selectable RNA replicon molecules”. The “IC50 on GBV-B replicon” value (GBV-B replicon; B76.1/Huh7 cells, up to 3 days, replicon RNA normalized to GAPDH) was 0.45 U/ml, the “IC50 on HCV replicon” value (HCV replicon) was 0.58 U/ml and the “Decrease of FL3 RNA amount” value ([1]; cB76.1/Huh7 transfected with FL3, day 6) was 10-20 fold. For the same substance, the “Effect on GAA mutant RNA amount” value ([1]; cB76.1/Huh7 transfected with mutant GAA construct, day 6) was “did not affect” and the “Number of blue cells” value (RepB replication) was “reduced the number of blue cells to background levels”.
